Measured values from ChEMBL document CHEMBL1201862, “PubChem BioAssay data set” (2004).
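Each compound was tested at five concentrations against cells in 96-well plates for 48 hours. GI50 marks 50% less growth.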 Calls of active or inactive are those of the source. Cut-off read from the data, not from the text of the source: active = GI50 up to about 1.1 µM and inactive = higher.

Key:
Test in all cases: DTP human tumour cell line panel, 48 h
[1] = system: NCI-H226
[2] = system: SW-620
[3] = system: LOX IMVI
[4] = system: MOLT-4
[5] = system: OVCAR-3
[6] = system: SNB-19
[7] = system: HCT-116
[8] = system: 786-0
[9] = system: HT-29
[10] = system: SF-268
[11] = system: COLO 205
[12] = system: UACC-257
[13] = system: MDA-MB-231
[14] = system: HCC 2998
[15] = system: A498
[16] = system: SF-539
[17] = system: MDA-MB-435
[18] = system: NCI/ADR-RES
[19] = system: Hs-578T

Measured: GI50

O=C(/C=C/c1ccc(O)c(O)c1)OCCc1ccc2ccccc2c1
inactive: [1] 14.8 µM | [2] 6.93 µM | [3] 6.98 µM | [4] 2.2 µM | [5] 3.26 µM | [6] 12.8 µM | [7] 5.24 µM | [8] 8.59 µM | [9] 12.9 µM | [10] 10.9 µM | [11] 4.59 µM | [12] 11 µM | [13] 10.6 µM | [14] 17 µM | [15] 15.2 µM | [16] 5.83 µM | [17] 2.54 µM | [18] 4.08 µM | [19] 4.79 µM

CCOP(=O)(OCC)/C(C#N)=C/c1cccn1N(C)C
inactive: [1] > 100 µM | [2] > 100 µM | [3] > 100 µM | [4] > 100 µM | [5] > 100 µM | [6] > 100 µM | [7] 3.37 µM | [8] > 100 µM | [9] > 100 µM | [10] > 100 µM | [11] > 100 µM | [12] > 100 µM | [13] > 100 µM | [14] > 100 µM | [15] > 100 µM | [16] > 100 µM | [17] > 100 µM | [18] > 100 µM | [19] > 100 µM

CCOC(=O)c1cc(C2(O)CCN(Cc3ccccc3)C2=O)c(-c2cc(C)no2)[nH]1 (configuration not stated)
inactive: [1] 55.7 µM | [2] 47.1 µM | [3] 29.5 µM | [4] 12.6 µM | [5] 36.5 µM | [6] 81.1 µM | [7] 37.9 µM | [8] 60.3 µM | [10] > 100 µM | [11] 56.8 µM | [12] 75.9 µM | [13] 29 µM | [14] 92.9 µM | [15] > 100 µM | [16] 89.7 µM | [17] 36.7 µM | [18] 38.5 µM | [19] 34 µM

CCc1cc2c(c3c1CCC3=O)CC1(Cc3ccc(C)cc3C1)C2 (configuration not stated)
inactive: [1] 13.5 µM | [3] 50.4 µM | [4] 11.5 µM | [5] 37.3 µM | [7] 17.6 µM | [8] 96.8 µM | [9] 18.1 µM | [11] 27.8 µM | [12] 32.2 µM | [13] 36.6 µM | [14] 33.9 µM | [15] 27.4 µM | [16] > 100 µM | [17] 33.7 µM | [18] > 100 µM | [19] 19.7 µM

COc1ccc(CNc2cc(=O)n(C)c(=O)[nH]2)cc1
inactive: [1] > 100 µM | [2] > 100 µM | [3] > 100 µM | [4] > 100 µM | [5] > 100 µM | [6] > 100 µM | [7] > 100 µM | [8] > 100 µM | [9] > 100 µM | [10] > 100 µM | [11] > 100 µM | [12] > 100 µM | [13] > 100 µM | [14] > 100 µM | [15] > 100 µM | [16] > 100 µM | [17] > 100 µM | [18] > 100 µM | [19] > 100 µM

O=Cc1cccc2c1Oc1c(cccc1C(=O)O)S2
inactive: [1] > 100 µM | [2] > 100 µM | [3] 45.7 µM | [4] 17.3 µM | [5] 33.3 µM | [6] 87.7 µM | [7] 28.2 µM | [8] 76.2 µM | [9] > 100 µM | [10] 48.3 µM | [11] 23.2 µM | [12] > 100 µM | [13] > 100 µM | [14] 57.4 µM | [15] > 100 µM | [16] 38.9 µM | [17] > 100 µM | [18] 36 µM | [19] 65.9 µM

CC(C)(C)C(=O)CC1(O)C=C(O)C(O)(CC(=O)C(C)(C)C)O1 (configuration not stated)
inactive: [1] 18.3 µM | [3] 12.5 µM | [4] 8.51 µM | [5] 59.4 µM | [6] 36.8 µM | [7] 4.71 µM | [8] 4.86 µM | [9] 18.7 µM | [10] 11.6 µM | [11] 21.7 µM | [12] 42.3 µM | [13] 55 µM | [14] > 100 µM | [15] > 100 µM | [16] 18.8 µM | [17] 41.9 µM | [18] 20.9 µM | [19] 35.2 µM

COc1cc(/C=C2/SC(c3ccccc3)N(c3cccc([N+](=O)[O-])c3)C2=O)cc(OC)c1OC (configuration not stated)
inactive: [1] > 100 µM | [2] 74.5 µM | [3] > 100 µM | [4] > 100 µM | [5] > 100 µM | [6] > 100 µM | [7] 61.4 µM | [8] > 100 µM | [10] > 100 µM | [11] > 100 µM | [12] > 100 µM | [13] > 100 µM | [14] > 100 µM | [15] > 100 µM | [16] > 100 µM | [17] 26.9 µM | [18] > 100 µM | [19] > 100 µM

O=C1C[C@@H](c2ccccc2)NCCCCN(O)CCCN1
inactive: [1] > 100 µM | [2] > 100 µM | [3] > 100 µM | [4] > 100 µM | [5] > 100 µM | [6] 28.4 µM | [7] > 100 µM | [8] > 100 µM | [9] > 100 µM | [10] > 100 µM | [11] > 100 µM | [12] > 100 µM | [13] > 100 µM | [14] > 100 µM | [15] > 100 µM | [16] > 100 µM | [17] > 100 µM | [18] > 100 µM | [19] > 100 µM

CC(=O)Oc1cc(OC(C)=O)c2c(c1C)CC[C@@H]1[C@@H]2CC[C@]2(C)[C@@H](OC(C)=O)CC[C@@H]12
inactive: [1] 17.4 µM | [2] 18.9 µM | [3] 18.4 µM | [4] 11.9 µM | [5] 17.3 µM | [6] 18.6 µM | [7] 15.8 µM | [8] 19.8 µM | [9] 15.8 µM | [10] 20.3 µM | [12] 17.7 µM | [13] 16.1 µM | [14] 20.7 µM | [15] 18.9 µM | [16] 16.1 µM | [17] 16.7 µM | [18] 22.5 µM | [19] 21.9 µM

NNC(=O)c1ccccc1NC(=O)/C(=C/c1ccccc1O)NC(=O)c1ccccc1
inactive: [1] 26.5 µM | [2] > 100 µM | [3] 47.1 µM | [4] > 100 µM | [6] 24.1 µM | [7] 88.3 µM | [8] 16.3 µM | [9] > 100 µM | [10] 12.8 µM | [11] > 100 µM | [12] > 100 µM | [13] 20.3 µM | [14] 10.9 µM | [15] 94.6 µM | [16] 20.1 µM | [17] 57.7 µM | [18] 15.6 µM | [19] 14.7 µM

CCCCCCCCCCCCCCCCNC(=O)/C(O)=C/C(=O)c1ccc(C)cc1
inactive: [1] > 10 µM | [2] > 10 µM | [3] > 10 µM | [4] > 10 µM | [5] > 10 µM | [8] > 10 µM | [9] > 10 µM | [10] > 10 µM | [11] > 10 µM | [12] > 10 µM | [13] > 10 µM | [14] > 10 µM | [15] > 10 µM | [16] > 10 µM | [17] > 10 µM | [18] > 10 µM | [19] > 10 µM

NNC(=O)Cc1cccnc1
inactive: [2] > 100 µM | [3] > 100 µM | [4] > 100 µM | [5] > 100 µM | [6] > 100 µM | [7] > 100 µM | [8] > 100 µM | [9] > 100 µM | [10] > 100 µM | [11] > 100 µM | [12] > 100 µM | [13] > 100 µM | [14] > 100 µM | [15] > 100 µM | [16] > 100 µM | [17] > 100 µM | [18] > 100 µM | [19] > 100 µM

Cc1ccc2nc(Cl)c(/C=N/N3C(=O)/C(=C/c4ccccc4S)N=C3c3ccccc3)cc2c1
inactive: [2] 39.2 µM | [3] 34.8 µM | [4] 1.85 µM | [5] 4.8 µM | [6] 52.8 µM | [7] 30.1 µM | [8] 54 µM | [9] 42.8 µM | [10] 36.6 µM | [11] 28.2 µM | [12] 68.5 µM | [13] > 100 µM | [14] 45.3 µM | [15] 29.5 µM | [16] 15.2 µM | [17] 12.6 µM | [18] 22.9 µM | [19] 22.3 µM

Cc1csc2c(P(=O)(OC(C)C)OC(C)C)c(-c3ccccc3)cn12
inactive: [2] 18.3 µM | [3] 13.6 µM | [4] 13 µM | [5] 14.4 µM | [6] 15.1 µM | [7] 14.2 µM | [8] 15.7 µM | [9] 15.6 µM | [10] 16.6 µM | [11] 18.7 µM | [12] 14 µM | [13] 17 µM | [14] 14.6 µM | [15] 18.7 µM | [16] 18.3 µM | [17] 21.5 µM | [18] 18 µM | [19] 17.1 µM
